# Measurements taken from patent US11691981B2, “Heterocyclic compounds, preparation methods therefor, and methods of uses thereof” (INVENTISBIO CO., LTD., priority 2019, dated 2023).
# Columns and labels:
# TGFβR1 = TGFβR1 (Homo sapiens (Human), UniProt P36897); assay: TGFβR1 kinase inhibition assay (ADP-Glo Kinase Assay); format: biochemical; settings: 40 nM TGFβR1 in 2x enzyme mix, 5.4 μM ATP in 2x substrate mix, 120 min RT
# Protocol: TGFβR1 kinase assay was performed according to the instruction manual of the ADP-Glo™ Kinase Assay kit provided by Promega. Prepare 1× Kinase buffer (50 mM Tris pH7.5, 0.1% BSA, 10 mM MgCl2, 1 mM DTT). Before activation reaction was started, Compounds were dissolved in DMSO and make 100× solution with 3-fold serial dilution for a total of 10 concentrations. Transfer 50 nL compounds to 384-well plate according to plate map using the automated liquid handler. […] Add 5 μL ADP-Glo Reagent to terminate the kinase reaction and deplete the remaining ATP, incubate at RT for 60 minutes. Add 10 μL Kinase Detection Reagent to convert ADP to ATP and allow the newly synthesized ATP to be measured using a luciferin reaction, incubate at RT for 30 minutes. Collect luminescence data with Envision.
# [1] = Human hepatocyte clearance study; format: in vitro ADME; settings: pooled cryopreserved human hepatocytes (suspension); for hepatocyte CLint at 1 µM / half-life at 1 µM: human; for hepatocyte CLint at 1 µM: read-out: Human In vitro Clint; for half-life at 1 µM: read-out: Human In vitro T1/2; for CLint scaled at 1 µM: human hepatocytes, scaling factor 2544.3, read-out: Human Scale-up Clint
# Protocol: (§1) The in vitro human hepatocyte clearance of compounds described here was studied using pooled human hepatocytes purchased from BioreclamationIVT (Westbury, N.Y., Cat #X008001, Lot #TQJ). The assay was conducted according to manufacturer's instruction. Briefly, 10 mM stock solutions of test compounds and positive control (Verapamil) were prepared in 100% DMSO. Thawing media (50 mL) used in the study consists of: 31 mL Williams E medium (GIBCO Cat #12551-032); 15 mL isotonic percoll (GE Healthcare Cat #17-0891-09); 500 uL 100× GlutaMax (GIBCO Cat #35050); 750 uL HEPES (GIBCO Cat #15630-080); 2.5 mL FBS (Corning Cat #35-076-CVR); 50 uL human insulin (GIBCO Cat #12585-014) and 5 uL dexamethasone (NICPBP). Incubation media is made of Williams E medium supplemented with 1× GlutaMax. Both thawing medium and incubation medium (serum-free) were placed in a 37° C. water bath for at least 15 minutes prior to use. Compound stock solutions were diluted to 100 μM by combining 198 μL of 50% acetonitrle/50% water and 2 μL of 10 mM stock solution. Verapamil was use as positive control in the assay. Vials of cryopreserved hepatocytes were removed from storage and thawed in a 37° C. water bath with gentle shaking. Contents of the vial were poured into the 50 mL thawing medium conical tube. Vials were centrifuged at 100 g for 10 minutes at room temperature. Thawing medium was aspirated and hepatocytes were re-suspended with serum-free incubation medium to yield ˜1.5×10^6 cells/mL. Hepatocyte viability and density were counted using a Trypan Blue exclusion, and then cells were diluted with serum-free incubation medium to a working cell density of 0.5×10^6 viable cells/mL. Then, a portion of the hepatocytes at 0.5×10^6 viable cells/mL was boiled for 5 minutes prior to adding to the plate as negative control to eliminate the enzymatic activity so that little or no substrate turnover should be observed. The boiled hepatocytes were used to prepare negative samples. Aliquots of 198 μL hepatocytes were dispensed into each well of a 96-well non-coated plate. The plate was placed in the incubator on an orbital shaker at 500 rpm for approximately 10 minutes. Aliquots of 2 μL of the 100 μM test compound or positive control were added into respective wells of the non-coated 96-well plate to start the reaction. This assay was performed in duplicate. The plate was incubated in the incubator on an orbital shaker at 500 rpm for the designated time points. Twenty-five microliter of contents were transferred and mixed with 6 volumes (150 μL) of cold acetonitrile with IS (200 nM imipramine, 200 nM labetalol and 200 nM diclofenac) to terminate the reaction at time points of 0, 15, 30, 60, 90 and 120 minutes. Samples were centrifuged at 3,220 g for 25 minutes and aliquots of 150 μL of the supernatants were used for LC-MS/MS analysis. For data analysis, all calculations were carried out using Microsoft Excel. Peak areas were determined from extracted ion chromatograms. The in vitro half-life (t1/2) of parent compound was determined by regression analysis of the percent parent disappearance vs. time curve. The in vitro half-life (in vitro ti) was determined from the slope value: in vitro t1/2=0.693/k. […] Scaling factors for in vivo intrinsic clearance prediction using human hepatocytes are listed as: liver weight (g liver/kg body weight): 25.7; hepatocyte concentration (10^6 cells/g liver): 99; scaling factor: 2544.3.
# pooled human hepatocytes = assay: Human hepatocyte clearance study; format: in vitro ADME; settings: human hepatocytes; for Human Hepatocyte Remaining Percentage @ 120 min: 0.5×10^6 viable cells/mL
# Protocol: as §1
# MDCK-MDR1 cells = assay: P-glycoprotein substrate potential / permeability in MDR1-transfected MDCK cells; format: in vitro ADME
# Protocol: (§2) MDCK-MDR1 cells were seeded into 96-well HTS Transwell plate at the density of 5.45×10^5/cm^2. Cells were cultivated for 4-7 days before the transport assay. Transepithelial electrical resistance (TEER) of MDCK-MDR1 monolayer was measured before the experiment with the Millicell Epithelial Volt-Ohm measuring system.
# (§3) Transport assay: Cell monolayers were pre-incubated in transport medium (TM, HBSS with 25 mM HEPES, pH 7.4) for 30 min at 37° C. After preincubation, the study was initiated by adding the test compound to the donor side and TM to the receiver side. Compound transport was assessed at 1 μM in two directions (apical, AP to basolateral, BL and BL to AP) and the study was carried out in the presence and absence of P-gp inhibitor verapamil in both AP and BL compartments. After two hours incubation, aliquots of 50 μL from donor or receiver side were removed and mixed with 4 volumes of acetonitrile containing internal standards (200 nM alprazolam, 200 nM labetalol, 2 μM ketoprofen). Samples were analyzed by UPLC-MS/MS. All incubations were performed in duplicate. After the transport experiment, Lucifer Yellow leakage was measured in a fluorescence plate reader at 485 nm excitation and 530 nm emission.
# (§4) Data Analysis: All calculations were carried out using Microsoft Excel. Peak areas are determined from extracted ion chromatograms.
# (§5) The apparent permeability coefficient (Papp), in units of centimeter per second, was calculated for MDCK-MDR1 drug transport assays using the following equation: […]
# (§6) Where VA is the volume (in mL) in the acceptor well, Area is the surface area of the membrane (0.143 cm2 for Transwell-96 Well Permeable Supports), and time is the total transport time in seconds.
# (§7) The efflux ratio was determined using the following equation: […]
# (§8) Where Papp (B-A) indicates the apparent permeability coefficient in basolateral to apical direction, and Papp (A-B) indicates the apparent permeability coefficient in apical to basolateral direction.
# TGFβR2 = TGFβR2 (Homo sapiens (Human), UniProt P37173); assay: TGFβR2 kinase inhibition assay (ADP-Glo); format: biochemical; settings: 10 uM ATP, 120 min room temperature
# Protocol: The TGFβR2 enzyme reaction was carried out as follows: 50 nL of compound in DMSO (or DMSO controls) were stamped into 384 white, low-volume plates. 2.5 μL of 2× enzyme solution (final enzyme concentration was 3 ng/uL in 40 mMTris, 7.5; 20 mM MgCl2; 0.1 mg/mL BSA; 1 mM DTT) was dispensed into assay plate. The plate was then sealed and spun at 1000 rpm for 30 s and incubated at room temperature for 10 min. Followed by addition of 2.5 μL of 2× substrate solution that contains both ATP (to make a final concentration of 10 uM) and TGFβR2 substrate (final concentration of 0.2 ug/uL). The plate was then sealed and spun at 1000 rpm for 30 s and the reaction was then incubated at room temperature for 120 min. After that 5 μL ADP-Glo™ Reagent was added into the assay wells to stop the reaction and deplete unconsumed ATP for 40 min at room temperature; then, 10 μL of Detection Reagent was added into the assay wells, followed by 40 min incubation to develop luminescence. The luminescence signal was then collected on Envision 2104 plate reader.
# P-glycoprotein (MDR1) = assay: P-glycoprotein substrate potential / permeability in MDR1-transfected MDCK cells; format: in vitro ADME; settings: dog, pH 7.4; for Papp A→B at 2 h, 1 µM / Papp B→A at 2 h, 1 µM: MDCK-MDR1, 1 μM, two hours; for Papp A→B at 2 h, 1 µM: apical to basolateral; for Papp B→A at 2 h, 1 µM: basolateral to apical; for efflux ratio at 2 h, 1 µM: MDCK-MDR1, Papp (B-A)/Papp (A-B)
# Protocol: as §2, §3, §4, §5, §6, §7, §8
# Chain of TGFβR1 (P36897 34-503): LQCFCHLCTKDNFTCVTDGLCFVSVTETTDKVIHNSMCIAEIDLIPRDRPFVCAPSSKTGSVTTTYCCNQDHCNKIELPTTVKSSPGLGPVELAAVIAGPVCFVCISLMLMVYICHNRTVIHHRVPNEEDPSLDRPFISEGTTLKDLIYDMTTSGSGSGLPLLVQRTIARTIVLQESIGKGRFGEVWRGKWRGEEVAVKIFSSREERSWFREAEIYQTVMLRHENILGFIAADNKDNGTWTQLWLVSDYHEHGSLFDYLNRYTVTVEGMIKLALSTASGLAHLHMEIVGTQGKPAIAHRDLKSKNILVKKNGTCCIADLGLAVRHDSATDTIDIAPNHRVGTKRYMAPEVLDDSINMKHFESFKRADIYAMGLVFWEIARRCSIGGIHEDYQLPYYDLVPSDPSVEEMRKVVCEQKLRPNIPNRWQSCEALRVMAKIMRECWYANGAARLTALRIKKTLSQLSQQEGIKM
# Chain of TGFβR2 (P37173 23-567): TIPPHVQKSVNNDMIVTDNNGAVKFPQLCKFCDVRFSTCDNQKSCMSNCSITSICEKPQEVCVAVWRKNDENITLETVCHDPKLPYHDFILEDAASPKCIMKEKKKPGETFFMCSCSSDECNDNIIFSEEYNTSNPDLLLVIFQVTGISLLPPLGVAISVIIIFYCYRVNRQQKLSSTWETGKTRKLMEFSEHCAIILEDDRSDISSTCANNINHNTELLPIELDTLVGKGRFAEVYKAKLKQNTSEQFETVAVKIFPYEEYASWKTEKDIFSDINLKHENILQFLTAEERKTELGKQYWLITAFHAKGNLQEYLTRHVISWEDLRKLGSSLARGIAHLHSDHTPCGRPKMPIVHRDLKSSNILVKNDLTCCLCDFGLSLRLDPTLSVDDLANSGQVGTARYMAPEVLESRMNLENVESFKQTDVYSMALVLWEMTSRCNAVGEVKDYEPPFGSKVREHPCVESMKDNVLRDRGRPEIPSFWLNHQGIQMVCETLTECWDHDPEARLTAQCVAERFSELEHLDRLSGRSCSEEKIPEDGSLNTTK
Structure (SMILES),IC50 (TGFβR1) [nM],hepatocyte CLint at 1 µM [1] [µL/min/1e6 cells],half-life at 1 µM [1] [h],CLint scaled at 1 µM [1] [mL/min/kg],"Papp (A-B) (MDCK-MDR1 cells; MDCK-MDR1, 1 μM, apical to basolateral, two hours)","Papp (B-A) (MDCK-MDR1 cells; MDCK-MDR1, 1 μM, basolateral to apical, two hours)","Efflux Ratio (MDCK-MDR1 cells; MDCK-MDR1, Papp (B-A)/Papp (A-B))",Human In vitro Clint (pooled human hepatocytes) [μL/min/10^6 cells],Human In vitro T1/2 (pooled human hepatocytes) [h],Human Scale-up Clint (pooled human hepatocytes; scaling factor 2544.3) [mL/min/kg],IC50 (TGFβR2) [nM],"Papp A→B at 2 h, 1 µM (P-glycoprotein (MDR1)) [×10⁻⁶ cm/s]","Papp B→A at 2 h, 1 µM (P-glycoprotein (MDR1)) [×10⁻⁶ cm/s]","efflux ratio at 2 h, 1 µM (P-glycoprotein (MDR1))",Human Hepatocyte Remaining Percentage @ 120 min (pooled human hepatocytes) [%]
Cn1nc(C(F)(F)F)cc1Oc1ccnc(Nc2ccnc(C(C)(C)O)c2)c1 [Compound 23],38,2.2,10.4,5.6,–,–,–,–,–,–,–,–,–,–,88
CC(C)(O)c1cc(Nc2cc(Oc3cccnc3C3CCOCC3)ccn2)ccn1 [Compound 54],56,6.8,3.38,17.4,–,–,–,–,–,–,> 100000,–,–,–,61
CC(C)(O)c1ccc(Nc2cc(Oc3cc(C(F)(F)F)nn3C3CCOCC3)ccn2)cn1 [Compound 11],24,5.7,4.03,14.6,–,–,–,–,–,–,> 100000,7.38,6.24,0.85,71
NS(=O)(=O)c1ccc(Nc2cc(Oc3cc(C(F)(F)F)nn3C3CCOCC3)ccn2)cc1 [Compound 12],28,7.7,3,19.6,–,–,–,–,–,–,> 100000,–,–,–,64

# Second part, led by results:
IC50 (TGFβR1) [nM],hepatocyte CLint at 1 µM [1] [µL/min/1e6 cells],half-life at 1 µM [1] [h],CLint scaled at 1 µM [1] [mL/min/kg],"Papp (A-B) (MDCK-MDR1 cells; MDCK-MDR1, 1 μM, apical to basolateral, two hours)","Papp (B-A) (MDCK-MDR1 cells; MDCK-MDR1, 1 μM, basolateral to apical, two hours)","Efflux Ratio (MDCK-MDR1 cells; MDCK-MDR1, Papp (B-A)/Papp (A-B))",Human In vitro Clint (pooled human hepatocytes) [μL/min/10^6 cells],Human In vitro T1/2 (pooled human hepatocytes) [h],Human Scale-up Clint (pooled human hepatocytes; scaling factor 2544.3) [mL/min/kg],IC50 (TGFβR2) [nM],"Papp A→B at 2 h, 1 µM (P-glycoprotein (MDR1)) [×10⁻⁶ cm/s]","Papp B→A at 2 h, 1 µM (P-glycoprotein (MDR1)) [×10⁻⁶ cm/s]","efflux ratio at 2 h, 1 µM (P-glycoprotein (MDR1))",Structure (SMILES),Human Hepatocyte Remaining Percentage @ 120 min (pooled human hepatocytes) [%]
53,–,–,–,"4.95 10^−6, cm/s","14.87 10^−6, cm/s",3.00,5.6,4.1,14.3,–,–,–,–,CC(C)(O)c1cc(Nc2cc(Oc3cc(C(F)(F)F)nn3C3CCOCC3)ccn2)ccn1 [Compound 2],72
–,12.5,1.85,31.7,–,–,–,–,–,–,–,2.75,37.8,13.7,"CC(C)(O)c1cc(Nc2cc(Oc3cn(C4CC4)nc3C3CCOCC3)ccn2)ccn1 [Compound A, 2-(4-((4-((1-cyclopropyl-3-(tetrahydro-2H-pyran-4-yl)-1H-pyrazol-4-yl)oxy)pyridin-2-yl)amino)pyridin-2-yl)propan-2-ol, reference compound]",48
21,2.4,9.73,6,–,–,–,–,–,–,> 100000,12.4,18,1.46,Cc1ccc(Oc2ccnc(Nc3ccnc(C(C)(C)O)c3)c2)c(C)n1 [Compound 57],89
44,7.5,3.08,19,–,–,–,–,–,–,> 100000,–,–,–,NS(=O)(=O)c1ccc(Nc2cc(Oc3cc(C4CC4)nn3C3CC3)ccn2)cc1 [Compound 13],65
12,–,–,–,–,–,–,–,–,–,15000,3.63,4.88,1.35,CC(C)(O)c1cc(Nc2cc(Oc3cc(C(F)(F)F)nn3-c3ccccn3)ccn2)ccn1 [Compound 41],–
